B1: Caulobacter crescentus CpaF (Tad pilus motor ATPase) (enzyme, Caulobacter crescentus NA1000, UniProt Q9L714 1-501, looked up)
chain: MFGKRDSSASGDPKAPPPAPAGGATIATRPQRVEPVAAPEPKAPAPKVSGPAPKPTVGLEQLRAAQGQPQTANIVREQSDYYHATKTTIFNALLNTIDLSQLAQLDLKQAGEEIRDIVAELVAIKNVSMSVAEQEHLVQDIINDVLGYGPLEPLLARDDIADIMVNGAHRVFIEVGGKVQLTNVRFRDNLQLMNICQRIVSQVGRRVDESSPICDARLPDGSRVNVIAPPLALDGPTLTIRKFKKDKLTMKNLVEFASISPEGARVLGVIGACRCNLVISGGTGSGKTTLLNTMTAFIDPTERVVTCEDAAELQLQQPHVVRLETRPPNLEGSGAVTMRDLVKNCLRMRPERIIVGEVRGPEAFDLLQAMNTGHDGSMGTLHANSPREAISRIESMITMGGYGLPSKTIKEMIVGSVDVIIQAARLRDGSRRITHITEVVGLEGDVIVTQDLFVYEITGEDEHGKVVGKHRSTGIARPRFWDRARYYGLERELAEALDAAE
notes: CpaF, Caulobacter crescentus NA1000, cloned from genomic DNA into pET28a; 501 residues (IDR 1-79, 3HB 80-146, NTD-CAD 147-501); residues 80-501 are modelled in the maps, the IDR is not resolved; Hexamer with C2 symmetry in all five cryo-EM structures; the construct was cloned from strain NA1000; also called WT CpaF; full length CpaF; source: E. coli Rosetta 2, purified (Ni-NTA, Superose 6 SEC)

Key:
[1] = target: T1, CpaF^66-501 (Caulobacter vibrioides, UniProt Q9L714); assay: enzyme-coupled ATPase assay (pyruvate kinase / lactate dehydrogenase, NADH at […] nm); format: biochemical; conditions: 1 mM ATP, 1 mM MgCl2, pH 8.0, 30 °C
T1 construct: IDR truncation, residues 66-501, N-terminal His6 tag (pET28a), E. coli Rosetta 2

[2] = target: T2, CpaF (Caulobacter vibrioides, UniProt Q9L714, K287A); assay: as above; format: biochemical; conditions: 1 mM ATP, 1 mM MgCl2, pH 8.0, 30 °C; Walker A mutant
T2 construct: full length (501 residues), N-terminal His6 tag (pET28a), tag removal not described, E. coli Rosetta 2; homohexamer; residues 80-501 modelled
T2 sequence (Q9L714 entry or part of it K287A): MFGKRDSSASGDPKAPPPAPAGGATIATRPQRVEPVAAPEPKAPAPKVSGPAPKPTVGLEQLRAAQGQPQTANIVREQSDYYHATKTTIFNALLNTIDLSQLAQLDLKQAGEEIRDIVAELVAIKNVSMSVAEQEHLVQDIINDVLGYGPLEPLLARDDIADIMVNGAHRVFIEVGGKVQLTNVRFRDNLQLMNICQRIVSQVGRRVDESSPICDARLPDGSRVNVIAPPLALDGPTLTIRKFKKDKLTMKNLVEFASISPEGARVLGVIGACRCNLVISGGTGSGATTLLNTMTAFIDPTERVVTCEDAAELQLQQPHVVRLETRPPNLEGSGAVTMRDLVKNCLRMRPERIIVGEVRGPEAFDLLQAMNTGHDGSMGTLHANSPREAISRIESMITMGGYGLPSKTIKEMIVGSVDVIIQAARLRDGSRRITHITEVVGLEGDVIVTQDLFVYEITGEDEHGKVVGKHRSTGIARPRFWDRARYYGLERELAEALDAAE

[3] = target: T3, CpaF^73-501 (Caulobacter vibrioides, UniProt Q9L714); assay: as above; format: biochemical; conditions: 1 mM ATP, 1 mM MgCl2, pH 8.0, 30 °C
T3 construct: IDR truncation, residues 73-501, N-terminal His6 tag (pET28a), E. coli Rosetta 2

[4] = target: T4, CpaF^80-501 (Caulobacter vibrioides, UniProt Q9L714); assay: as above; format: biochemical; conditions: 1 mM ATP, 1 mM MgCl2, pH 8.0, 30 °C
T4 construct: IDR truncation, residues 80-501 (whole IDR removed), N-terminal His6 tag (pET28a), E. coli Rosetta 2

[5] = target: the molecule itself; assay: cryo-EM structure; purified CpaF, 5 mg/mL, 50 mM HEPES pH 8.0, 200 mM NaCl, 1 mM TCEP, 0.05% CHAPS; three samples: no added nucleotide, 50 uM equimolar ATP/ADP/MgCl2, 1 mM ATP/MgCl2; C2-symmetric hexamers (closed, compact, expanded)

Molecule | ATPase activity [1] | ATPase activity [2] | ATPase activity [3] | ATPase activity [4] | stoichiometry N [5]
Nc1ncnc2c1ncn2[C@@H]1O[C@H](COP(=O)(O)OP(=O)(O)OP(=O)(O)O)[C@@H](O)[C@H]1O [ATP] | Enzyme-coupled ATPase assays revealed that IDR truncation does not abrogate enzyme activity | IDR truncation does not abrogate enzyme activity while a Walker A motif point mutant CpaF^K287A does | Enzyme-coupled ATPase assays revealed that IDR truncation does not abrogate enzyme activity | Enzyme-coupled ATPase assays revealed that IDR truncation does not abrogate enzyme activity | –
B1 | – | – | – | – | 6

Source: publication PMC12019362, “Conformational changes in the motor ATPase CpaF facilitate a rotary mechanism of Tad pilus assembly” (Nature Communications, 2025)
